Source: BindingDB's records for doi:10.1021/jm00089a010 (Abbott Laboratories, 1992)
Where a SMILES comes first, the peptide text is derived from it. [ ]: non-standard residue; d: D form. The star is where a group is joined. Acryloyl(3-(pyridin-3-yl)) = O=C(C=Cc1cccnc1)*; 2Naphthoyl(6-OH) = O=C(c1ccc2cc(O)ccc2c1)*; Hydrocinnamoyl(4-Me) = Cc1ccc(CCC(=O)*)cc1; Quinoline3carbonyl = O=C(c1cnc2ccccc2c1)*; X36 = O=C(C=Cc1ccc(OS(=O)(=O)O)cc1)*; X20 = CC(=O)Oc1ccc2cc(C(=O)*)ccc2c1; NMeF = CN[C@@H](Cc1ccccc1)C(=O)O; X14 = O=C(c1cc2cc(O)ccc2[nH]1)*; X2 = O=C(c1cc2cc(Cl)ccc2[nH]1)*; X37 = O=C(C=Cc1c[nH]c2ccccc12)*; X8 = COc1ccc2[nH]c(C(=O)*)cc2c1; X12 = O=C(c1cnc2cccc(O)c2c1)*; X18 = O=C(c1cc2ccccc2[nH]1)*; X19 = O=C(/C=C\c1ccccc1)*; Boc = CC(C)(C)OC(=O)*

What follows are compounds tested against Gastrin/cholecystokinin type B receptor (Cavia porcellus) (assay: Inhibition of specific binding of [125I]BH-CCK-8 in guinea pig cortex).

Structure (SMILES)	IC50 [µM]
CC(C)(C)OC(=O)N[C@@H](Cc1c[nH]c2ccccc12)C(=O)N[C@@H](CCCCNC(=O)c1cc2cc(Cl)ccc2[nH]1)C(=O)N[C@@H](CC(=O)O)C(=O)N[C@@H](Cc1ccccc1)C(N)=O (Boc-WK(X2)DF-NH2)	5.2
COc1ccc2[nH]c(C(=O)NCCCC[C@H](NC(=O)[C@H](Cc3c[nH]c4ccccc34)NC(=O)OC(C)(C)C)C(=O)N[C@@H](CC(=O)O)C(=O)N[C@@H](Cc3ccccc3)C(N)=O)cc2c1 (Boc-WK(X8)DF-NH2)	3
CC(C)(C)OC(=O)N[C@@H](Cc1c[nH]c2ccccc12)C(=O)N[C@@H](CCCCNC(=O)c1cc2ccccc2[nH]1)C(=O)N[C@@H](CC(=O)O)C(=O)N[C@@H](Cc1ccccc1)C(N)=O (Boc-WK(X18)DF-NH2)	2.1
CC(=O)Oc1ccc2cc(C(=O)NCCCC[C@H](NC(=O)[C@H](Cc3c[nH]c4ccccc34)NC(=O)OC(C)(C)C)C(=O)N[C@@H](CC(=O)O)C(=O)N[C@@H](Cc3ccccc3)C(N)=O)ccc2c1 (Boc-WK(X20)DF-NH2)	1.4
CC(C)(C)OC(=O)N[C@@H](Cc1c[nH]c2ccccc12)C(=O)N[C@@H](CCCCNC(=O)C=Cc1c[nH]c2ccccc12)C(=O)N[C@@H](CC(=O)O)C(=O)N[C@@H](Cc1ccccc1)C(N)=O (Boc-WK(X37)DF-NH2)	4.7
Cc1ccc(CCC(=O)NCCCC[C@H](NC(=O)[C@H](Cc2c[nH]c3ccccc23)NC(=O)OC(C)(C)C)C(=O)N[C@@H](CC(=O)O)C(=O)N[C@@H](Cc2ccccc2)C(N)=O)cc1 [3-[2-[2-tert-Butoxycarbonylamino-3-(1H-indol-3-yl)-propionylamino]-6-(3-p-tolyl-propionylamino)-hexanoylamino]-N-(1-carbamoyl-2-phenyl-ethyl)-succinamic acid] (Boc-WK(Hydrocinnamoyl(4-Me))DF-NH2)	10
CC(C)(C)OC(=O)N[C@@H](Cc1c[nH]c2ccccc12)C(=O)N[C@@H](CCCCNC(=O)/C=C\c1ccccc1)C(=O)N[C@@H](CC(=O)O)C(=O)N[C@@H](Cc1ccccc1)C(N)=O [3-[2-[2-tert-Butoxycarbonylamino-3-(1H-indol-3-yl)-propionylamino]-6-(3-phenyl-acryloylamino)-hexanoylamino]-N-(1-carbamoyl-2-phenyl-ethyl)-succinamic acid.AcOH] (Boc-WK(X19)DF-NH2)	1.8

Now those with a lower IC50, led by results:

IC50 [µM]	Structure (SMILES)
1	CN(C(=O)[C@H](CC(=O)O)NC(=O)[C@H](CCCCNC(=O)C=Cc1ccc(OS(=O)(=O)O)cc1)NC(=O)[C@H](Cc1c[nH]c2ccccc12)NC(=O)OC(C)(C)C)[C@@H](Cc1ccccc1)C(N)=O (Boc-WK(X36)D[NMeF]-NH2)
0.83	CC(C)(C)OC(=O)N[C@@H](Cc1c[nH]c2ccccc12)C(=O)N[C@@H](CCCCNC(=O)c1cc2cc(O)ccc2[nH]1)C(=O)N[C@@H](CC(=O)O)C(=O)N[C@@H](Cc1ccccc1)C(N)=O (Boc-WK(X14)DF-NH2)
0.73	CN(C(=O)[C@H](CC(=O)O)NC(=O)[C@H](CCCCNC(=O)c1ccc2cc(O)ccc2c1)NC(=O)[C@H](Cc1c[nH]c2ccccc12)NC(=O)OC(C)(C)C)[C@@H](Cc1ccccc1)C(N)=O (Boc-WK(2Naphthoyl(6-OH))D[NMeF]-NH2)
0.67	CC(C)(C)OC(=O)N[C@@H](Cc1c[nH]c2ccccc12)C(=O)N[C@@H](CCCCNC(=O)c1cnc2cccc(O)c2c1)C(=O)N[C@@H](CC(=O)O)C(=O)N[C@@H](Cc1ccccc1)C(N)=O (Boc-WK(X12)DF-NH2)
0.2	CC(C)(C)OC(=O)N[C@@H](Cc1c[nH]c2ccccc12)C(=O)N[C@@H](CCCCNC(=O)c1cnc2ccccc2c1)C(=O)N[C@@H](CC(=O)O)C(=O)N[C@@H](Cc1ccccc1)C(N)=O (Boc-WK(Quinoline3carbonyl)DF-NH2)
0.12	CN(C(=O)[C@H](CC(=O)O)NC(=O)[C@H](CCCCNC(=O)C=Cc1cccnc1)NC(=O)[C@H](Cc1c[nH]c2ccccc12)NC(=O)OC(C)(C)C)[C@@H](Cc1ccccc1)C(N)=O (Boc-WK(Acryloyl(3-(pyridin-3-yl)))D[NMeF]-NH2)
